# Data reported in patent US20230398130A1, “METHODS AND COMPOSITIONS FOR DIFFERENTIATING STEM CELLS” (Massachusetts Institute of Technology, priority 2020, published 2023).
# Experiments:
# [1] = system: ISC-enriched organoids; experiment: Primary screen, 384-well 2.5-D organoid differentiation (ENR+CD, 6 days): carbachol-induced lysozyme secretion (LYZ.S); type: cell-based, murine; settings: for Dose.FC.LYZ.S: ENR+CD, 6 days, FC vs plate median; for Dose.FC.LYZ.S (log 2 fold change, carbachol-induced lysozyme secretion) / Dose.FC.LYZ.S (log 2 fold change): vs plate median; for Dose.FC.LYZ.S (log 2 fold change): primary screen
# Description: (§1) High-throughput screening.
# [2] = system: ISC-enriched organoids; experiment: Primary screen, 384-well 2.5-D organoid differentiation (ENR+CD, 6 days): basal lysozyme secretion (LYZ.NS); type: cell-based, murine; settings: for Dose.FC.LYZ.NS: ENR+CD, 6 days, FC vs plate median; for Z.LYZ.NS: standard z score of FC; for Dose.FC.LYZ.NS (log 2 fold change, basal lysozyme secretion) / Dose.FC.LYZ.NS (log 2 fold change): vs plate median
# Description: as §1
# [3] = system: ISC-enriched organoids; experiment: Primary screen, 384-well 2.5-D organoid differentiation (ENR+CD, 6 days, Target Selective Inhibitor Library, vs whole-plate median): ATP (CellTiter-Glo 3D, CTG); settings: for Dose.FC.CTG: ENR+CD, 6 days, FC vs plate median; for Z.CTG: standard z score of FC; for Dose.FC.CTG (log 2 fold change, ATP) / Dose.FC.CTG (log 2 fold change): vs plate median
molecule,measurement,setting,value
CC(C)c1cc(-c2n[nH]c(=O)n2-c2ccc3c(ccn3C)c2)c(O)cc1O [Ganetespib (STA-9090)],Dose.FC.LYZ.S,[1]; Dose 0.08 uM,−0.260 log 2 fold change
same,Dose.FC.LYZ.S,[1]; Dose 0.40 uM,−0.250 log 2 fold change
same,Dose.FC.LYZ.S,[1]; Dose 2.00 uM,−0.260 log 2 fold change
same,Dose.FC.LYZ.S,[1]; Dose 10.00 uM,−0.267 log 2 fold change
same,Dose.FC.LYZ.NS,[2]; Dose 0.08 uM,−0.141 log 2 fold change
same,Z.LYZ.NS,[2]; Dose 0.08 uM,−1.226
same,Dose.FC.LYZ.NS,[2]; Dose 0.40 uM,−0.155 log 2 fold change
same,Z.LYZ.NS,[2]; Dose 0.40 uM,−1.345
same,Dose.FC.LYZ.NS,[2]; Dose 2.00 uM,−0.150 log 2 fold change
same,Z.LYZ.NS,[2]; Dose 2.00 uM,−1.309
same,Dose.FC.LYZ.NS,[2]; Dose 10.00 uM,−0.136 log 2 fold change
same,Z.LYZ.NS,[2]; Dose 10.00 uM,−1.181
same,Dose.FC.CTG,[3]; Dose 0.08 uM,−1.450 log 2 fold change
same,Z.CTG,[3]; Dose 0.08 uM,−3.465
same,Dose.FC.CTG,[3]; Dose 0.40 uM,−2.105 log 2 fold change
same,Z.CTG,[3]; Dose 0.40 uM,−5.027
same,Dose.FC.CTG,[3]; Dose 2.00 uM,−1.721 log 2 fold change
same,Z.CTG,[3]; Dose 2.00 uM,−4.110
same,Dose.FC.CTG,[3]; Dose 10.00 uM,−1.620 log 2 fold change
same,Z.CTG,[3]; Dose 10.00 uM,−3.871
Nc1nc(N)c2nc(-c3cccc(O)c3)c(-c3cccc(O)c3)nc2n1 [TG100-115],"Dose.FC.LYZ.S (log 2 fold change, carbachol-induced lysozyme secretion)",[1]; dose 0.08 uM,0.073
same,"Dose.FC.LYZ.S (log 2 fold change, carbachol-induced lysozyme secretion)",[1]; dose 0.40 uM,0.032
same,"Dose.FC.LYZ.S (log 2 fold change, carbachol-induced lysozyme secretion)",[1]; dose 2.00 uM,−0.019
same,"Dose.FC.LYZ.S (log 2 fold change, carbachol-induced lysozyme secretion)",[1]; dose 10.00 uM,−0.100
same,Z.LYZ.NS (standard z score),[2]; dose 0.08 uM,1.812
same,"Dose.FC.LYZ.NS (log 2 fold change, basal lysozyme secretion)",[2]; dose 0.08 uM,0.208
same,Z.LYZ.NS (standard z score),[2]; dose 0.40 uM,−0.223
same,"Dose.FC.LYZ.NS (log 2 fold change, basal lysozyme secretion)",[2]; dose 0.40 uM,−0.026
same,Z.LYZ.NS (standard z score),[2]; dose 2.00 uM,0.025
same,"Dose.FC.LYZ.NS (log 2 fold change, basal lysozyme secretion)",[2]; dose 2.00 uM,0.003
same,Z.LYZ.NS (standard z score),[2]; dose 10.00 uM,−0.223
same,"Dose.FC.LYZ.NS (log 2 fold change, basal lysozyme secretion)",[2]; dose 10.00 uM,−0.026
same,Z.CTG (standard z score),[3]; dose 0.08 uM,−0.611
same,"Dose.FC.CTG (log 2 fold change, ATP)",[3]; dose 0.08 uM,−0.256
same,Z.CTG (standard z score),[3]; dose 0.40 uM,0.158
same,"Dose.FC.CTG (log 2 fold change, ATP)",[3]; dose 0.40 uM,0.066
same,Z.CTG (standard z score),[3]; dose 2.00 uM,−0.031
same,"Dose.FC.CTG (log 2 fold change, ATP)",[3]; dose 2.00 uM,−0.013
same,Z.CTG (standard z score),[3]; dose 10.00 uM,−0.277
same,"Dose.FC.CTG (log 2 fold change, ATP)",[3]; dose 10.00 uM,−0.116
SNS-314 Mesylate,Dose.FC.LYZ.S (log 2 fold change),[1]; Dose 0.08 uM,−0.115
same,Dose.FC.LYZ.S (log 2 fold change),[1]; Dose 0.40 uM,−0.103
same,Dose.FC.LYZ.S (log 2 fold change),[1]; Dose 2.00 uM,−0.133
same,Dose.FC.LYZ.S (log 2 fold change),[1]; Dose 10.00 uM,−0.198
same,Z.LYZ.NS (standard z score),"[2]; Dose 0.08 uM, primary screen",−0.620
same,Dose.FC.LYZ.NS (log 2 fold change),"[2]; Dose 0.08 uM, primary screen",−0.071
same,Z.LYZ.NS (standard z score),"[2]; Dose 0.40 uM, primary screen",−0.515
same,Dose.FC.LYZ.NS (log 2 fold change),"[2]; Dose 0.40 uM, primary screen",−0.059
same,Z.LYZ.NS (standard z score),"[2]; Dose 2.00 uM, primary screen",−1.111
same,Dose.FC.LYZ.NS (log 2 fold change),"[2]; Dose 2.00 uM, primary screen",−0.128
same,Z.LYZ.NS (standard z score),"[2]; Dose 10.00 uM, primary screen",−1.109
same,Dose.FC.LYZ.NS (log 2 fold change),"[2]; Dose 10.00 uM, primary screen",−0.127
same,Z.CTG (standard z score),"[3]; Dose 0.08 uM, primary screen",−1.591
same,Dose.FC.CTG (log 2 fold change),"[3]; Dose 0.08 uM, primary screen",−0.666
same,Z.CTG (standard z score),"[3]; Dose 0.40 uM, primary screen",−1.857
same,Dose.FC.CTG (log 2 fold change),"[3]; Dose 0.40 uM, primary screen",−0.777
same,Z.CTG (standard z score),"[3]; Dose 2.00 uM, primary screen",−1.142
same,Dose.FC.CTG (log 2 fold change),"[3]; Dose 2.00 uM, primary screen",−0.478
same,Z.CTG (standard z score),"[3]; Dose 10.00 uM, primary screen",−1.480
same,Dose.FC.CTG (log 2 fold change),"[3]; Dose 10.00 uM, primary screen",−0.620
S3I-201,Dose.FC.LYZ.S (log 2 fold change),[1]; Dose 0.08 uM,0.033
same,Dose.FC.LYZ.S (log 2 fold change),[1]; Dose 0.40 uM,0.157
same,Dose.FC.LYZ.S (log 2 fold change),[1]; Dose 2.00 uM,−0.004
same,Dose.FC.LYZ.S (log 2 fold change),[1]; Dose 10.00 uM,−0.052
same,Z.LYZ.NS (standard z score),"[2]; Dose 0.08 uM, primary screen",0.445
same,Dose.FC.LYZ.NS (log 2 fold change),"[2]; Dose 0.08 uM, primary screen",0.051
same,Z.LYZ.NS (standard z score),"[2]; Dose 0.40 uM, primary screen",0.527
same,Dose.FC.LYZ.NS (log 2 fold change),"[2]; Dose 0.40 uM, primary screen",0.061
same,Z.LYZ.NS (standard z score),"[2]; Dose 2.00 uM, primary screen",0.212
same,Dose.FC.LYZ.NS (log 2 fold change),"[2]; Dose 2.00 uM, primary screen",0.024
same,Z.LYZ.NS (standard z score),"[2]; Dose 10.00 uM, primary screen",−0.143
same,Dose.FC.LYZ.NS (log 2 fold change),"[2]; Dose 10.00 uM, primary screen",−0.016
same,Z.CTG (standard z score),"[3]; Dose 0.08 uM, primary screen",0.766
same,Dose.FC.CTG (log 2 fold change),"[3]; Dose 0.08 uM, primary screen",0.321
same,Z.CTG (standard z score),"[3]; Dose 0.40 uM, primary screen",0.382
same,Dose.FC.CTG (log 2 fold change),"[3]; Dose 0.40 uM, primary screen",0.160
same,Z.CTG (standard z score),"[3]; Dose 2.00 uM, primary screen",0.188
same,Dose.FC.CTG (log 2 fold change),"[3]; Dose 2.00 uM, primary screen",0.079
same,Z.CTG (standard z score),"[3]; Dose 10.00 uM, primary screen",−0.334
same,Dose.FC.CTG (log 2 fold change),"[3]; Dose 10.00 uM, primary screen",−0.140
Cc1[nH]c2ccccc2c1CCNC(=O)c1cccs1 [CK-636],Dose.FC.LYZ.S,[1]; Dose 0.08 uM,0.080 log 2 fold change
same,Dose.FC.LYZ.S,[1]; Dose 0.40 uM,−0.013 log 2 fold change
same,Dose.FC.LYZ.S,[1]; Dose 2.00 uM,0.072 log 2 fold change
same,Dose.FC.LYZ.S,[1]; Dose 10.00 uM,−0.103 log 2 fold change
same,Dose.FC.LYZ.NS,[2]; Dose 0.08 uM,0.039 log 2 fold change
same,Z.LYZ.NS,[2]; Dose 0.08 uM,0.336
same,Dose.FC.LYZ.NS,[2]; Dose 0.40 uM,−0.049 log 2 fold change
same,Z.LYZ.NS,[2]; Dose 0.40 uM,−0.427
same,Dose.FC.LYZ.NS,[2]; Dose 2.00 uM,−0.066 log 2 fold change
same,Z.LYZ.NS,[2]; Dose 2.00 uM,−0.573
same,Dose.FC.LYZ.NS,[2]; Dose 10.00 uM,−0.108 log 2 fold change
same,Z.LYZ.NS,[2]; Dose 10.00 uM,−0.944
same,Dose.FC.CTG,[3]; Dose 0.08 uM,0.202 log 2 fold change
same,Z.CTG,[3]; Dose 0.08 uM,0.483
same,Dose.FC.CTG,[3]; Dose 0.40 uM,−0.004 log 2 fold change
same,Z.CTG,[3]; Dose 0.40 uM,−0.010
same,Dose.FC.CTG,[3]; Dose 2.00 uM,−0.201 log 2 fold change
same,Z.CTG,[3]; Dose 2.00 uM,−0.479
same,Dose.FC.CTG,[3]; Dose 10.00 uM,−0.169 log 2 fold change
same,Z.CTG,[3]; Dose 10.00 uM,−0.404
